“Also recorded” adds a separate entry of the source.
Tests used:
[1] = tested on: B. anthracis Sterne strain 7702; assay type: cell-based; conditions: pretreated A549 cells, vs other treatment groups
EAEC = test: Effect of dialyzed supernatants of treated HEp-2 cells on EAEC adherence; assay type: cell-based, E. coli; conditions: HEp-2 treated 24 h with 64 mg/ml (so in the source); chambered slides with or without HEp-2 cells, 3 h
Procedure: Supernatant dialysis. HEp-2 cells were cultured in T-175 flasks as described above. […] After 24 h, the medium was collected, loaded into regenerated cellulose dialysis tubing (cutoff, 6 to 8 kDa; Spectra/Por, Rancho Domiguez, Calif.), and dialyzed against 4 liters of PBS changed four times. Each dialysis step lasted at least 6 h and was carried out at 4° C. Dialyzed supernatants were either used immediately in adherence assays or stored at −20° C. until use.
The effect of supernatants on EAEC adherence was determined by mixing EAEC with the dialyzed media from the different antibiotic (or control) treatment groups and adding the bacteria to HEp-2 cells cultured in chambered slides or to chambered slides with no HEp-2 cells. Adherence was visualized microscopically as described above.

[2] = tested on: enterotoxigenic E coli strains; test: MIC against rifaximin by agar dilution, ETEC isolates; assay type: cell-based
From the text: (§1) Five enterotoxigenic E coli strains, 2 enteroaggregative E coli strains, and 1 S sonnei isolate were included in the study. The isolates had been identified previously from patients with TD acquired in Guadalajara, Mexico, during the summer of 2004 (5).

S sonnei isolate [3] = test: MIC against rifaximin by agar dilution, S sonnei isolate; assay type: cell-based
From the text: as §1

ETEC strains = test: Isolate viability after rifaximin exposure, ETEC; assay type: cell-based, E coli
EAEC isolates = test: Isolate viability after rifaximin exposure, EAEC; assay type: cell-based, E coli
S sonnei isolate [4] = test: Isolate viability after rifaximin exposure, S sonnei; assay type: cell-based
EAEC strains = test: HCT-8 cell culture assay for IL-8 release after infection with rifaximin-exposed EAEC; assay type: cell-based, E coli
Procedure: The human intestinal adenocarcinoma cell line, HCT-8, was used to study inflammatory modulators as previously published (Huang, 2004 #15). Monolayers of HCT-8 cells (ATCC CCL-244; American Type Culture Collection, Rockville, Md.) were grown in 24-well culture plates (Corning Costar, Corning, N.Y.) in an RPMI 1640 medium (Sigma-Aldrich Co, St Louis, Mo.) supplemented with 100 U/mL of penicillin, 100 μg/mL of streptomycin, and 0.25 μg/mL of amphotericin B. They were maintained in a medium supplemented with 10% fetal bovine serum (HyClone, Logan, Utah) and grown until approximately 4×10^5 cells/well confluence.
HCT-8 cells were infected with EAEC strains recovered from MacConkey agar in triplicate at a 100:1 ratio in an antibiotic- and serum-free RPMI 1640 medium. Cells were incubated for 3 hours in a humidified chamber at 37° C. in an atmosphere containing 5% CO2, after which supernatants were collected. The supernatant concentration of IL-8 in each well was determined by using a commercially available enzyme-linked immunosorbent assay kit for human IL-8 (R&D Systems, Minneapolis, Minn.). All samples were tested twice, and the average value was reported.

C difficile isolates = conditions: 201 C difficile isolates, Canada, cited from earlier work
[5] = rifaximin 32 and 64 mg/L for 24 hours

In the case of “(2S,16Z,18E,20S,21S ,22R, 23R,24R,255,265,275,28E)-5,6,21,23,25 Pentahydroxy-27-methoxy-2,4,11,16,20,22,24,26-octamethyl-2,7-(epoxypentadeca-(1,11,13) trienimino) benzofuro (4,5-e) pyrido(1,2,-a) benzimidazole-1,15(2H)-dione,25-acetate [Rifaximin]”, the “Internalization of B. anthracis” value ([1]; gentamicin protection) is reported as “significant reductions”, the “Adherence of B. anthracis” value [1] is reported as “significant reductions” and the “Adherence of EAEC mixed with dialyzed supernatants from treated HEp-2 cells” value (EAEC) is reported as “adhered poorly; also recorded: affected EAEC adherence”. For the same substance, the MIC ([2]; 2 ETEC isolates) was 128 µg/mL, the MIC ([2]; 3 ETEC isolates) was 64 µg/mL and the MIC (S sonnei isolate [3]) was 16 µg/mL. The ETEC viability (ETEC strains; rifaximin 8 mg/L for 24 hours) was “viable”, the ETEC viability (ETEC strains; rifaximin 64 mg/L for 18 hours) was “No ETEC isolates were viable; also recorded: not viable” and the ETEC viability (ETEC strains; rifaximin 8, 32, and 64 mg/L for 4 and 8 hours) was “viable”. The ETEC viability (ETEC strains; rifaximin 8 and 32 mg/L for 18 hours) was “viable”, the ETEC viability (ETEC strains; [5]) was “No ETEC isolates were viable; also recorded: not viable” and the EAEC viability (EAEC isolates; rifaximin 8 mg/L for 24 hours) was “viable”. The EAEC viability (EAEC isolates; rifaximin 8, 32, and 64 mg/L at 4, 8, and 18 hours) was “viable”, the EAEC viability (EAEC isolates; [5]) was “no viable isolates were recovered; also recorded: not viable” and the S sonnei viability (S sonnei isolate [4]; rifaximin 8 mg/L for 4, 8, 18, and 24 hours) was “viable”. For the same substance, the S sonnei viability (S sonnei isolate [4]; rifaximin 32 or 64 mg/L at any time point examined) was “not viable”, the “IL-8 production from HCT-8 cells elicited by rifaximin-exposed EAEC” value (from here on “IL-8 production”) (EAEC strains; all other time points and rifaximin concentrations) was “either undetected following HCT-8 infection with EAEC strains, or EAEC strains were not viable” and the “IL-8 production” value (EAEC strains; rifaximin 64 mg/L for 4 hours) was “caused IL-8 production”. For the same substance, the “IL-8 production” value (EAEC strains; rifaximin 8 or 32 mg/L for 4 or 8 hours) was “elicited production of IL-8”, the “IL-8 production” value (EAEC strains; viable isolates, rifaximin 8, 32, or 64 mg/L for 18 hours or 8 mg/L for 24 hours) was “did not elicit IL-8 production” and the MIC50 (C difficile isolates; 1992 to 2007) was 0.008 µg/mL. For the same substance, the MIC90 (C difficile isolates; 1992 to 2007) was 0.015 µg/mL and the “Isolates with MIC values >2 μg/mL” value (C difficile isolates) was 4%.

From patent US20200069664A1, “METHODS FOR TREATING INFECTION” (Salix Pharmaceuticals, Ltd, priority 2010, published 2020)
